Four molecules from patent US8470804B2, “11a, 12-derivatives of tetracycline compounds” (Paratek Pharmaceuticals, Inc., priority 2005, dated 2013) can be followed below.

The test system of one test is common bacteria. Description: In vitro minimum inhibitory concentration (MIC) assay. It is filed as cell-based, E. coli, S. aureus, Enterococcus sp. Particulars: broth microdilution in CAMHB, 35° C., approximately 18 hours. As for the experimental part:
The following assay was used to determine the efficacy of tetracycline compounds against common bacteria. 2 mg of each compound were dissolved in 100 μl of DMSO. […] The tetracycline compound solutions were diluted to 50 μl, volumes, with a test compound concentration of 0.098 μg/ml. Optical density (OD) determinations were made from fresh log-phase broth cultures of the test strains. Dilutions were made to achieve a final cell density of 1×10^6 CFU/ml. At OD=1, cell densities for different genera were approximately: [table] 50 μl of the cell suspensions were added to each well of microtiter plates. The final cell density should be approximately 5×10^5 CFU/ml. These plates are incubated at 35° C. in an ambient air incubator for approximately 18 hours. The plates are read with a microplate reader and are visually inspected when necessary. The MIC was defined as the lowest concentration of the tetracycline compound that inhibits growth.
On the technique in general: Broth dilution looks for growth in wells or tubes with falling amounts of substance.

Another test deals with EAE induced mice. Put plainly: In vivo experimental autoimmune encephalomyelitis (EAE) murine model. Particulars: IP injections 50 mg/kg each day from day 10 (onset of disease); minocycline control at same dose. Also noted: species or system C57BL/6 female mice. As for the experimental part:
In this example, a mouse model was used to determine the ability of the tetracycline compounds to treat demyelination related diseases. Other models which can be used are described in Brundula V. et al. Brain 2002 June; 125 (Pt 6): 1297-308 and Popovic N. et al. Ann Neural. 2002 February; 51(2):215-23.
To induce EAE, 6 week old C57BL/6 female mice were injected subcutaneously with 200 ug of myelin oligodendrocyte glycoprotein peptide (MOG 35-55) emulsified in 200 μL of complete Freund's adjuvant containing an additional 4 mg/mL of heat killed M. tuberculosis. Mice were additionally injected intravenously (tail vein) with 150 ng of lyophilized pertussis toxin resuspended in 150 μL PBS at time 0 and again 48 hours later. In this model, the mice developed progressive posterior to anterior advancing paralysis with symptoms first appearing at 10-12 days and progressing to severe paralysis by approximately 21 days. Severity of EAE was scored daily according to the following criteria: 0, healthy; 1, limp tail; 2, partial paralysis of one or two hind limbs; 3, complete paralysis of the hind limbs; 4, complete hind limb paralysis and forelimb paraparesis; 5, moribund. All test experiments included control groups of EAE induced mice treated with vehicle only or treated with minocycline, with 10 mice per group. […]

As to `C[C@H]1c2ccc(N)c(O)c2C(=O)C2=C[C@]3(O)C(=O)C(C(N)=O)=C(O)[C@@H](N(C)C)[C@@H]3[C@@H](O)[C@@H]21` [9-Amino-12-dehydrodoxycline, (4S,4aR,5S,5aR,6R,12aR)-9-Amino-4-dimethylamino-3,5,10,12a-tetrahydroxy-6-methyl-1,11-dioxo-1,4,4a,5,5a,6,11,12a-octahydro-naphthacene-2-carboxylic acid amide], the “antibacterial activity (MIC)” value in the test with common bacteria was “low antibacterial activity”.

As to `C[C@H]1c2ccc(N(C)C)c(O)c2C(=O)C2=C[C@]3(O)C(=O)C(C(N)=O)=C(O)[C@@H](N(C)C)[C@@H]3[C@@H](O)[C@@H]21` [9-bis-dimethylamino-12-dehydrodoxycline, (4S,4aR,5S,5aR,6R,12aR)-4,9-Bis-dimethylamino-3,5,10,12a-tetrahydroxy-6-methyl-1,11-dioxo-1,4,4a,5,5a,6,11,12a-octahydro-naphthacene-2-carboxylic acid amide], the “antibacterial activity (MIC)” value in the test with common bacteria was “low antibacterial activity”. `CNC1C2C(=O)c3c(O)cccc3[C@H](C)[C@H]2[C@H](O)[C@H]2[C@H](N(C)C)C(O)=C(C(N)=O)C(=O)[C@@]12O` (stereo partly drawn) [12-methylamino-12-dehydrodoxycycline, (4S,4aR,5S,5aR,6R,12aS)-4-Dimethylamino-3,5,10,12a-tetrahydroxy-6-methyl-12-methylamino-1,11-dioxo-1,4,4a,5,5a,6,11,11a,12,12a-decahydro-naphthacene-2-carboxylic acid amide]: the “activity in EAE model (severity of EAE scored daily 0-5) compared with minocycline” value in the test on EAE induced mice is recorded as “activity similar to or better than minocycline”. With `C[C@H]1c2cccc(O)c2C(=O)C2=C[C@]3(O)C(=O)C(C(N)=O)=C(O)[C@@H](N(C)C)[C@@H]3[C@@H](O)[C@@H]21` [12-dehydrodoxycycline, (4S,4aR,5S,5aR,6R,12aR)-4-Dimethylamino-3,5,10,12a-tetrahydroxy-6-methyl-1,11-dioxo-1,4,4a,5,5a,6,11,12a-octahydro-naphthacene-2-carboxylic acid amide], the “antibacterial activity (MIC)” value with common bacteria is listed as “low antibacterial activity”. For the same molecule, the “activity in EAE model (severity of EAE scored daily 0-5) compared with minocycline” value in the test on EAE induced mice is listed as “activity similar to or better than minocycline”.
